What follows are compounds tested against MAPK14 (human) (UniProt Q16539) (assay: Inhibition of MAPK14 Kinase Activity).
MAPK14 (human), sequence (Q16539 whole entry, looked up): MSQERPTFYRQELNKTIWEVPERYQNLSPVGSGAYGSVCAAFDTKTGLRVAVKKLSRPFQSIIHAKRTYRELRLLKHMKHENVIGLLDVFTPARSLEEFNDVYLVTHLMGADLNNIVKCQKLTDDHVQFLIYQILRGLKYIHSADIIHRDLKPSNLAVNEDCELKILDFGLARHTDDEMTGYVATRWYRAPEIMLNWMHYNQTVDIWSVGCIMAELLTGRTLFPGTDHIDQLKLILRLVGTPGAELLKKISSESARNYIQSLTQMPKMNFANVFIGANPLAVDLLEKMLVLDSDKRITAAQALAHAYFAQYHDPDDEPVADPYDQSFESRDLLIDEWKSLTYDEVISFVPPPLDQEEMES

IC50, < 2000 nM:
CC(=O)Nc1sc2c(ccc(=O)n2-c2ccccc2)c1C(=O)c1ccccc1, Cc1cccc(C(=O)c2c(NC3CCN(C(C)C)CC3)sc3c2ccc(=O)n3-c2ccccc2)c1, Cc1cc(C(=O)c2c(NC3CCN(C)CC3)sc3c2ccc(=O)n3-c2c(F)cccc2F)ccc1F, Cc1cccc(C(=O)c2c(NC(=O)N3CCC[C@@H]3CO)sc3c2ccc(=O)n3-c2ccccc2)c1, O=C(c1ccccc1)c1c(C(=O)N2CCOCC2)sc2c1ccc(=O)n2-c1ccccc1, CC(=O)Nc1sc2c(ccc(=O)n2-c2ccccc2)c1C(=O)c1cccc(C(F)(F)F)c1, CN1CCC(C(=O)Nc2sc3c(ccc(=O)n3-c3ccccc3)c2C(=O)c2ccccc2)CC1, Cc1cc(C(=O)c2c(N)sc3c2ccc(=O)n3-c2ccccc2Cl)ccc1F, Nc1sc2c(ccc(=O)n2-c2ccccc2)c1C(=O)c1nccs1, Cc1cc(C(=O)c2c([N+](=O)[O-])sc3c2ccc(=O)n3-c2ccccc2Cl)ccc1F, Cc1ccc(-n2c(=O)ccc3c(C(=O)c4ccc(F)c(C)c4)c(N)sc32)cc1, CC(C)(O)CNC(=O)Nc1sc2c(ccc(=O)n2-c2ccccc2Cl)c1C(=O)c1ccccc1, CN(C)[C@H]1CCN(c2sc3c(ccc(=O)n3-c3ccccc3)c2C(=O)c2ccccc2)C1, CN1CCC(Nc2sc3c(ccc(=O)n3-c3ccc(F)cc3)c2C(=O)c2ccccc2)CC1, Cc1cc(C(=O)c2c(NC(=O)C3CCNCC3)sc3c2ccc(=O)n3-c2ccccc2F)ccc1F, Cc1cccc(C(=O)c2c(NC(N)=O)sc3c2ccc(=O)n3-c2ccccc2)c1, Cc1cc(C(=O)c2c(NC(=O)C3CCN(C)CC3)sc3c2ccc(=O)n3-c2ccccc2)ccc1F, Cc1cccc(C(=O)c2c(C(=O)O)sc3c2ccc(=O)n3-c2ccccc2)c1, CC(C)(CO)NC(=O)c1sc2c(ccc(=O)n2-c2ccccc2)c1C(=O)c1ccccc1, O=C(Nc1sc2c(ccc(=O)n2-c2ccccc2)c1C(=O)c1ccccc1)N[C@H]1CCNC1, O=C(c1ccccc1)c1c(N[C@H]2CCCNC2)sc2c1ccc(=O)n2-c1ccccc1, O=C(c1cccc(Cl)c1)c1c(NC(=O)C2CCNCC2)sc2c1ccc(=O)n2-c1ccccc1, CN(C)c1sc2c(ccc(=O)n2-c2ccccc2)c1C(=O)c1ccccc1, CC(=O)Nc1sc2c(ccc(=O)n2-c2ccccc2)c1C(=O)c1ccc(F)c(C)c1, CN(C)c1ccc(-n2c(=O)ccc3c(C(=O)c4ccccc4)c(N)sc32)cn1, Cc1cc(C(=O)c2c(NC(=O)N[C@@H]3CCN(C)C3)sc3c2ccc(=O)n3-c2ccccc2)ccc1F, Nc1sc2c(ccc(=O)n2-c2ccccc2)c1C(=O)c1ccccc1, Cc1cccc(C(=O)c2c(NC(=O)N3CCN(C)CC3)sc3c2ccc(=O)n3-c2ccccc2)c1, Cc1cccc(C(=O)c2c(C#N)sc3c2ccc(=O)n3-c2ccccc2)c1, O=C(c1ccccc1)c1c(C(=O)N2CCC2)sc2c1ccc(=O)n2-c1ccccc1, Cc1cc(C(=O)c2c(NC(=O)NCC(C)(C)O)sc3c2ccc(=O)n3-c2ccccc2)ccc1F, O=C(NCCO)Nc1sc2c(ccc(=O)n2-c2ccccc2)c1C(=O)c1ccccc1, Cc1cccc(C(=O)c2c(NC(=O)N(C)C)sc3c2ccc(=O)n3-c2ccccc2)c1, CN1CCC(C(=O)Nc2sc3c(ccc(=O)n3-c3ccccc3Cl)c2C(=O)c2ccccc2)CC1, CCOC(=O)c1sc2c(ccc(=O)n2-c2ccccc2)c1C(=O)c1ccc(F)c(C)c1, COc1ccc(C(=O)c2c(N)sc3c2ccc(=O)n3-c2ccccc2)cc1, CC(=O)Nc1sc2c(ccc(=O)n2-c2ccccc2)c1C(=O)c1ccc(C)c(C)c1, CC(=O)Nc1sc2c(ccc(=O)n2-c2ccccc2F)c1C(=O)c1ccccc1, CC(=O)Nc1sc2c(ccc(=O)n2-c2ccccc2)c1C(=O)c1cccc(C)c1, CN(C)C(=O)c1sc2c(ccc(=O)n2-c2ccccc2)c1C(=O)c1ccccc1, Nc1sc2c(ccc(=O)n2-c2ccccc2)c1C(=O)c1cccc(OC(F)(F)F)c1, O=C(c1ccccc1)c1c(NC2CCCNC2)sc2c1ccc(=O)n2-c1ccccc1 (stereo unspecified), CC(=O)Nc1sc2c(ccc(=O)n2-c2ccccc2)c1C(=O)c1ccccc1C, Cc1cccc(C(=O)c2c(NC(=O)NCC(C)(C)O)sc3c2ccc(=O)n3-c2ccccc2)c1, Cc1cccc(C(=O)c2c(NC(=O)NNS(C)(=O)=O)sc3c2ccc(=O)n3-c2ccccc2)c1, CCN1CCC(Nc2sc3c(ccc(=O)n3-c3ccccc3)c2C(=O)c2cccc(C)c2)CC1, CN1CCN(C(=O)Nc2sc3c(ccc(=O)n3-c3ccccc3)c2C(=O)c2ccccc2)CC1, CCN1CCC(NC(=O)Nc2sc3c(ccc(=O)n3-c3ccccc3)c2C(=O)c2cccc(C)c2)C1 (stereo unspecified), N#Cc1cccc(C(=O)c2c(N)sc3c2ccc(=O)n3-c2ccccc2)c1, CC(C)N1CCC(Nc2sc3c(ccc(=O)n3-c3ccccc3)c2C(=O)c2ccccc2)C1 (stereo unspecified), O=C(c1ccccc1)c1c(NC2CNC2)sc2c1ccc(=O)n2-c1c(F)cccc1F, CC(=O)Nc1sc2c(ccc(=O)n2CC2CC2)c1C(=O)c1ccccc1, COc1cccc(C(=O)c2c(NC3CCN(C)CC3)sc3c2ccc(=O)n3-c2ccccc2)c1, Cc1cccc(C(=O)c2c(N[C@H]3CCN(C)C3)sc3c2ccc(=O)n3-c2ccccc2)c1, CC(=O)Nc1sc2c(ccc(=O)n2-c2ccccc2)c1C(=O)c1ccccc1Cl, CC(C)N1CCC(Nc2sc3c(ccc(=O)n3-c3ccccc3)c2C(=O)c2ccccc2)CC1, Cc1cc(C(=O)c2c(NC(=O)NCC(C)(C)O)sc3c2ccc(=O)n3CC2CC2)ccc1F, Nc1sc2c(ccc(=O)n2-c2ccc(F)cc2)c1C(=O)c1ccccc1, CC(=O)Nc1sc2c(ccc(=O)n2-c2ccccc2)c1C(=O)c1cccc(OC(F)(F)F)c1, Cc1cccc(C(=O)c2c(N)sc3c2ccc(=O)n3-c2ccccc2)c1, Cc1cccc(C(=O)c2c(N3CCCCC3)sc3c2ccc(=O)n3-c2ccccc2)c1, N#Cc1sc2c(ccc(=O)n2-c2ccccc2Cl)c1C(=O)c1ccccc1, NC1CCN(c2sc3c(ccc(=O)n3-c3ccccc3)c2C(=O)c2ccccc2)CC1, N[C@H]1CC[C@H](Nc2sc3c(ccc(=O)n3-c3ccccc3)c2C(=O)c2ccccc2)CC1, CC(C)(CO)NC(=O)Nc1sc2c(ccc(=O)n2-c2ccccc2)c1C(=O)c1ccccc1, Nc1sc2c(ccc(=O)n2-c2ccccc2)c1C(=O)c1ccccc1Cl, CN1CC(Nc2sc3c(ccc(=O)n3-c3c(F)cccc3F)c2C(=O)c2ccccc2)C1, Nc1sc2c(ccc(=O)n2-c2ccccc2)c1C(=O)c1ccc(Cl)cc1, O=C(c1ccccc1)c1c(NCCN2CCCCC2)sc2c1ccc(=O)n2-c1ccccc1, CC(=O)Nc1sc2c(ccc(=O)n2-c2ccccc2)c1C(=O)c1cccc(C)n1, CCN1CCC(Nc2sc3c(ccc(=O)n3-c3ccccc3)c2C(=O)c2ccc(F)c(C)c2)CC1, CC(=O)Nc1sc2c(ccc(=O)n2-c2ccccc2)c1C(=O)c1ccccc1C#N, Cc1cccc(C(=O)c2c(NC3CCNCC3)sc3c2ccc(=O)n3-c2ccccc2)c1, CCN1CCC(Nc2sc3c(ccc(=O)n3-c3ccccc3)c2C(=O)c2ccccc2)CC1, CN1CC[C@H](NC(=O)Nc2sc3c(ccc(=O)n3-c3ccccc3)c2C(=O)c2ccccc2)C1, Cc1cc(C(=O)c2c(N)sc3c2ccc(=O)n3-c2c(F)cccc2F)ccc1F, Cc1cc(C(=O)c2c(NC3CN(C)C3)sc3c2ccc(=O)n3-c2ccccc2)ccc1F, Cc1ccc(-n2c(=O)ccc3c(C(=O)c4ccccc4)c(N)sc32)cc1, Nc1sc2c(ccc(=O)n2-c2ccccc2)c1C(=O)c1cccc(C(F)(F)F)c1, CN(C)C1CN(c2sc3c(ccc(=O)n3-c3ccccc3)c2C(=O)c2ccccc2)C1, Cc1cc(C(=O)c2c(NC3CNC3)sc3c2ccc(=O)n3-c2c(F)cccc2F)ccc1F, Nc1sc2c(ccc(=O)n2-c2ccccc2)c1C(=O)c1ccccc1C(F)(F)F, CC(=O)Nc1sc2c(ccc(=O)n2-c2ccccc2Cl)c1C(=O)c1cccc(C)c1, NC(=O)c1sc2c(ccc(=O)n2-c2ccccc2)c1C(=O)c1cccc(Cl)c1, CC(C)(O)CNC(=O)Nc1sc2c(ccc(=O)n2CC2CC2)c1C(=O)c1ccccc1, Cc1cc(C(=O)c2c(N)sc3c2ccc(=O)n3-c2ccccc2)ccc1F

Reference: the Kinase Knowledgebase extract (Sharma et al. 2016)
